# Test results as given in PMC11352961, “Peptide dendrimers transfecting CRISPR/Cas9 plasmid DNA: optimization and mechanism” (RSC Chemical Biology, 2024).
# Bridge positions count the residues as written; N and C are the ends. Square brackets hold non-standard residues; d marks the D form. Side chains are listed from the residue outwards. Peptide text beside a SMILES is read from it. I, II: the chains in the order shown. * marks the point of attachment. Stearoyl = CCCCCCCCCCCCCCCCCC(=O)*; Palmitoyl = CCCCCCCCCCCCCCCC(=O)*
# Columns and labels:
# HEK293 cells = assay: Cell viability by PrestoBlue assay after transfection, HEK cells; assay type: cell-based; conditions: 4 h
# HeLa cells = assay: Cell viability by PrestoBlue assay after transfection, HeLa cells; assay type: cell-based; conditions: 4 h
SMILES,% viability HEK cells (HEK293 cells) [%],% viability HeLa cells (HeLa cells) [%]
"CC(C)C[C@H](NC(=O)[C@H](CCCCN)NC(=O)[C@H](CCCCNC(=O)[C@H](CC(C)C)NC(=O)[C@H](CCCCN)NC(=O)[C@H](CCCCNC(=O)[C@H](CC(C)C)NC(=O)[C@@H](N)CCCCN)NC(=O)[C@H](CC(C)C)NC(=O)[C@@H](N)CCCCN)NC(=O)[C@H](CC(C)C)NC(=O)[C@H](CCCCN)NC(=O)[C@H](CCCCNC(=O)[C@H](CC(C)C)NC(=O)[C@@H](N)CCCCN)NC(=O)[C@H](CC(C)C)NC(=O)[C@@H](N)CCCCN)C(=O)NCCCC[C@H](NC(=O)[C@H](CC(C)C)NC(=O)[C@H](CCCCN)NC(=O)[C@H](CCCCNC(=O)[C@H](CC(C)C)NC(=O)[C@H](CCCCN)NC(=O)[C@H](CCCCNC(=O)[C@H](CC(C)C)NC(=O)[C@@H](N)CCCCN)NC(=O)[C@H](CC(C)C)NC(=O)[C@@H](N)CCCCN)NC(=O)[C@H](CC(C)C)NC(=O)[C@H](CCCCN)NC(=O)[C@H](CCCCNC(=O)[C@H](CC(C)C)NC(=O)[C@@H](N)CCCCN)NC(=O)[C@H](CC(C)C)NC(=O)[C@@H](N)CCCCN)C(=O)NCC(=O)N[C@@H](CO)C(=O)N[C@@H](CS)C(N)=O [G123KL, reference compound] (I: H-KLK([Leu-Lys])KLKKLKGSC-NH2 / II: H-KLK([Leu-Lys])KLKKL / III: H-KLK([Leu-Lys])KL / IV: H-KLK([Leu-Lys])KL; amide I:6-IV:C, I:9-II:C, II:6-III:C)",52 ± 9,
"CCCCCCCCCCCCCCCCCC(=O)NCCCC[C@H](NC(=O)[C@H](CCCCNC(=O)CCCCCCCCCCCCCCCCC)NC(=O)[C@H](CCCCNC(=O)[C@H](CC(C)C)NC(=O)[C@H](CCCCN)NC(=O)[C@H](CCCCNC(=O)[C@H](CC(C)C)NC(=O)[C@H](CCCCN)NC(=O)[C@H](CCCCNC(=O)[C@H](CC(C)C)NC(=O)[C@@H](N)CCCCN)NC(=O)[C@H](CC(C)C)NC(=O)[C@@H](N)CCCCN)NC(=O)[C@H](CC(C)C)NC(=O)[C@H](CCCCN)NC(=O)[C@H](CCCCNC(=O)[C@H](CC(C)C)NC(=O)[C@@H](N)CCCCN)NC(=O)[C@H](CC(C)C)NC(=O)[C@@H](N)CCCCN)NC(=O)[C@H](CC(C)C)NC(=O)[C@H](CCCCN)NC(=O)[C@H](CCCCNC(=O)[C@H](CC(C)C)NC(=O)[C@H](CCCCN)NC(=O)[C@H](CCCCNC(=O)[C@H](CC(C)C)NC(=O)[C@@H](N)CCCCN)NC(=O)[C@H](CC(C)C)NC(=O)[C@@H](N)CCCCN)NC(=O)[C@H](CC(C)C)NC(=O)[C@H](CCCCN)NC(=O)[C@H](CCCCNC(=O)[C@H](CC(C)C)NC(=O)[C@@H](N)CCCCN)NC(=O)[C@H](CC(C)C)NC(=O)[C@@H](N)CCCCN)C(N)=O [Z2] (I: H-KLK([Leu-Lys])KLKKLKK(Stearoyl)K(Stearoyl)-NH2 / II: H-KLK([Leu-Lys])KLKKL / III: H-KLK([Leu-Lys])KL / IV: H-KLK([Leu-Lys])KL; amide I:6-IV:C, I:9-II:C, II:6-III:C)",79 ± 11,47 ± 3
"CC(C)C[C@H](NC(=O)[C@H](CC(C)C)NC(=O)[C@H](CC(C)C)NC(=O)[C@H](CC(C)C)NC(=O)[C@H](CC(C)C)NC(=O)[C@H](CCCCNC(=O)[C@H](CC(C)C)NC(=O)[C@H](CCCCN)NC(=O)[C@H](CCCCNC(=O)[C@H](CC(C)C)NC(=O)[C@H](CCCCN)NC(=O)[C@H](CCCCNC(=O)[C@H](CC(C)C)NC(=O)[C@@H](N)CCCCN)NC(=O)[C@H](CC(C)C)NC(=O)[C@@H](N)CCCCN)NC(=O)[C@H](CC(C)C)NC(=O)[C@H](CCCCN)NC(=O)[C@H](CCCCNC(=O)[C@H](CC(C)C)NC(=O)[C@@H](N)CCCCN)NC(=O)[C@H](CC(C)C)NC(=O)[C@@H](N)CCCCN)NC(=O)[C@H](CC(C)C)NC(=O)[C@H](CCCCN)NC(=O)[C@H](CCCCNC(=O)[C@H](CC(C)C)NC(=O)[C@H](CCCCN)NC(=O)[C@H](CCCCNC(=O)[C@H](CC(C)C)NC(=O)[C@@H](N)CCCCN)NC(=O)[C@H](CC(C)C)NC(=O)[C@@H](N)CCCCN)NC(=O)[C@H](CC(C)C)NC(=O)[C@H](CCCCN)NC(=O)[C@H](CCCCNC(=O)[C@H](CC(C)C)NC(=O)[C@@H](N)CCCCN)NC(=O)[C@H](CC(C)C)NC(=O)[C@@H](N)CCCCN)C(N)=O [Z3] (I: H-KLK([Leu-Lys])KLKKLKLLLLL-NH2 / II: H-KLK([Leu-Lys])KLKKL / III: H-KLK([Leu-Lys])KL / IV: H-KLK([Leu-Lys])KL; amide I:6-IV:C, I:9-II:C, II:6-III:C)",76 ± 7,51 ± 5
"CCCCCCCCCCCCCCCC(=O)NCCCC[C@H](NC(=O)[C@H](CCCCNC(=O)[C@H](CC(C)C)NC(=O)[C@H](CCCCN)NC(=O)[C@H](CCCCNC(=O)[C@H](CC(C)C)NC(=O)[C@H](CCCCN)NC(=O)[C@H](CCCCNC(=O)[C@H](CC(C)C)NC(=O)[C@@H](N)CCCCN)NC(=O)[C@H](CC(C)C)NC(=O)[C@@H](N)CCCCN)NC(=O)[C@H](CC(C)C)NC(=O)[C@H](CCCCN)NC(=O)[C@H](CCCCNC(=O)[C@H](CC(C)C)NC(=O)[C@@H](N)CCCCN)NC(=O)[C@H](CC(C)C)NC(=O)[C@@H](N)CCCCN)NC(=O)[C@H](CC(C)C)NC(=O)[C@H](CCCCN)NC(=O)[C@H](CCCCNC(=O)[C@H](CC(C)C)NC(=O)[C@H](CCCCN)NC(=O)[C@H](CCCCNC(=O)[C@H](CC(C)C)NC(=O)[C@@H](N)CCCCN)NC(=O)[C@H](CC(C)C)NC(=O)[C@@H](N)CCCCN)NC(=O)[C@H](CC(C)C)NC(=O)[C@H](CCCCN)NC(=O)[C@H](CCCCNC(=O)[C@H](CC(C)C)NC(=O)[C@@H](N)CCCCN)NC(=O)[C@H](CC(C)C)NC(=O)[C@@H](N)CCCCN)C(N)=O [Z4] (I: H-KLK([Leu-Lys])KLKKLKK(Palmitoyl)-NH2 / II: H-KLK([Leu-Lys])KLKKL / III: H-KLK([Leu-Lys])KL / IV: H-KLK([Leu-Lys])KL; amide I:6-IV:C, I:9-II:C, II:6-III:C)",89 ± 11,88 ± 11
"CCCCCCCCCCCCCCCCCC(=O)NCCCC[C@H](NC(=O)[C@H](CCCCNC(=O)[C@H](CC(C)C)NC(=O)[C@H](CCCCN)NC(=O)[C@H](CCCCNC(=O)[C@H](CC(C)C)NC(=O)[C@H](CCCCN)NC(=O)[C@H](CCCCNC(=O)[C@H](CC(C)C)NC(=O)[C@@H](N)CCCCN)NC(=O)[C@H](CC(C)C)NC(=O)[C@@H](N)CCCCN)NC(=O)[C@H](CC(C)C)NC(=O)[C@H](CCCCN)NC(=O)[C@H](CCCCNC(=O)[C@H](CC(C)C)NC(=O)[C@@H](N)CCCCN)NC(=O)[C@H](CC(C)C)NC(=O)[C@@H](N)CCCCN)NC(=O)[C@H](CC(C)C)NC(=O)[C@H](CCCCN)NC(=O)[C@H](CCCCNC(=O)[C@H](CC(C)C)NC(=O)[C@H](CCCCN)NC(=O)[C@H](CCCCNC(=O)[C@H](CC(C)C)NC(=O)[C@@H](N)CCCCN)NC(=O)[C@H](CC(C)C)NC(=O)[C@@H](N)CCCCN)NC(=O)[C@H](CC(C)C)NC(=O)[C@H](CCCCN)NC(=O)[C@H](CCCCNC(=O)[C@H](CC(C)C)NC(=O)[C@@H](N)CCCCN)NC(=O)[C@H](CC(C)C)NC(=O)[C@@H](N)CCCCN)C(=O)N[C@@H](CS)C(N)=O [Z12] (I: H-KLK([Leu-Lys])KLKKLKK(Stearoyl)C-NH2 / II: H-KLK([Leu-Lys])KLKKL / III: H-KLK([Leu-Lys])KL / IV: H-KLK([Leu-Lys])KL; amide I:6-IV:C, I:9-II:C, II:6-III:C)",80 ± 5,112 ± 10
"CCCCCCCCCCCCCCCCCC(=O)NCCCC[C@H](NC(=O)[C@H](CCCCNC(=O)[C@H](CC(C)C)NC(=O)[C@H](CCCCN)NC(=O)[C@H](CCCCNC(=O)[C@H](CC(C)C)NC(=O)[C@H](CCCCN)NC(=O)[C@H](CCCCNC(=O)[C@H](CC(C)C)NC(=O)[C@@H](N)CCCCN)NC(=O)[C@H](CC(C)C)NC(=O)[C@@H](N)CCCCN)NC(=O)[C@H](CC(C)C)NC(=O)[C@H](CCCCN)NC(=O)[C@H](CCCCNC(=O)[C@H](CC(C)C)NC(=O)[C@@H](N)CCCCN)NC(=O)[C@H](CC(C)C)NC(=O)[C@@H](N)CCCCN)NC(=O)[C@H](CC(C)C)NC(=O)[C@H](CCCCN)NC(=O)[C@H](CCCCNC(=O)[C@H](CC(C)C)NC(=O)[C@H](CCCCN)NC(=O)[C@H](CCCCNC(=O)[C@H](CC(C)C)NC(=O)[C@@H](N)CCCCN)NC(=O)[C@H](CC(C)C)NC(=O)[C@@H](N)CCCCN)NC(=O)[C@H](CC(C)C)NC(=O)[C@H](CCCCN)NC(=O)[C@H](CCCCNC(=O)[C@H](CC(C)C)NC(=O)[C@@H](N)CCCCN)NC(=O)[C@H](CC(C)C)NC(=O)[C@@H](N)CCCCN)C(=O)N[C@@H](C)C(N)=O [Z15] (I: H-KLK([Leu-Lys])KLKKLKK(Stearoyl)A-NH2 / II: H-KLK([Leu-Lys])KLKKL / III: H-KLK([Leu-Lys])KL / IV: H-KLK([Leu-Lys])KL; amide I:6-IV:C, I:9-II:C, II:6-III:C)",71 ± 7,107 ± 10
"CCCCCCCCCCCCCCCCCC(=O)NCCCC[C@@H](NC(=O)[C@@H](CCCCNC(=O)[C@@H](CC(C)C)NC(=O)[C@@H](CCCCN)NC(=O)[C@@H](CCCCNC(=O)[C@@H](CC(C)C)NC(=O)[C@@H](CCCCN)NC(=O)[C@@H](CCCCNC(=O)[C@@H](CC(C)C)NC(=O)[C@H](N)CCCCN)NC(=O)[C@@H](CC(C)C)NC(=O)[C@H](N)CCCCN)NC(=O)[C@@H](CC(C)C)NC(=O)[C@@H](CCCCN)NC(=O)[C@@H](CCCCNC(=O)[C@@H](CC(C)C)NC(=O)[C@H](N)CCCCN)NC(=O)[C@@H](CC(C)C)NC(=O)[C@H](N)CCCCN)NC(=O)[C@@H](CC(C)C)NC(=O)[C@@H](CCCCN)NC(=O)[C@@H](CCCCNC(=O)[C@@H](CC(C)C)NC(=O)[C@@H](CCCCN)NC(=O)[C@@H](CCCCNC(=O)[C@@H](CC(C)C)NC(=O)[C@H](N)CCCCN)NC(=O)[C@@H](CC(C)C)NC(=O)[C@H](N)CCCCN)NC(=O)[C@@H](CC(C)C)NC(=O)[C@@H](CCCCN)NC(=O)[C@@H](CCCCNC(=O)[C@@H](CC(C)C)NC(=O)[C@H](N)CCCCN)NC(=O)[C@@H](CC(C)C)NC(=O)[C@H](N)CCCCN)C(=O)N[C@H](CS)C(N)=O [Z20] (I: H-[dK][dL][dK]([dL-dK])[dK][dL][dK][dK][dL][dK][dK](Stearoyl)[dC]-NH2 / II: H-[dK][dL][dK]([dL-dK])[dK][dL][dK][dK][dL] / III: H-[dK][dL][dK]([dL-dK])[dK][dL] / IV: H-[dK][dL][dK]([dL-dK])[dK][dL]; amide I:6-IV:C, I:9-II:C, II:6-III:C)",85 ± 9,85 ± 9
